pIC50: −log10 of the molar value.
The compounds below were run against SMYD2 (Homo sapiens, UniProt Q9NRG4) (assay: Scintillation Proximity Assay (SPA) for detection of SMYD2 enzymatic inhibition). Conditions: SMYD2 full length enzyme, p53 Peptide substrate 1.0 μM, 3H-SAM 60 nM; read-out: IC50 [mol/l] (SPA Assay).
Format: biochemical
Parameters: The SMYD2 full length enzyme was produced in-house by expression (with an N-terminal 6× His tag) in E. coli; 6xHis (N); made in house; host or cells: E. coli
Excerpt: 1.1 Scintillation Proximity Assay (SPA) for Detection of SMYD2 Enzymatic Inhibition
SMYD2 inhibitory activities of the compounds described in the present invention were quantified using a scintillation proximity assay (SPA) which measures methylation by the enzyme of the synthetic, biotinylated peptide Btn-Ahx-[…]—Amid×TFA (Biosyntan) derived from p53 and referred to from here on as “p53 Peptide”. The SMYD2 full length enzyme was produced in-house by expression (with an N-terminal 6× His tag) in E. coli and purification by affinity chromatography on a Ni-NTA Sepharose column followed by a size exclusion chromatography step on a Superdex 200 16/60 column (GE Healthcare).
In a typical assay 11 different concentrations of each compound (0.1 nM, 0.33 nM, 1.1 nM, 3.8 nM, 13 nM, 44 nM, 0.15 μM, 0.51 μM, 1.7 μM, 5.9 μM and 20 μM) were tested in duplicate within the same microtiter plate. To this end, 100-fold concentrated compound solutions (in DMSO) were previously prepared by serial dilution (1:3.4) of 2 mM stocks in a clear low volume 384-well source microliter plate (Greiner Bio-One), from which 50 nl of compound solutions were transferred into a white low volume test microtiter plate from the same supplier. Subsequently, 2.5 μl SMYD2 in aqueous assay buffer [50 mM Tris/HCl pH 9.0 (AppliChem), 1 mM dithiothreitol (DTT, Sigma), 0.01% (w/v) bovine serum albumine (BSA, Sigma), 0.0022% (v/v) Pluronic (Sigma)] were added to the compounds in the test plate to a final enzyme concentration of —typically—3 nM (this parameter was adjusted depending on the activity of the enzyme lot in order to be within the linear dynamic range of the assay). The samples were then incubated for 15 min at 22° C. to allow pre-equilibration of the putative enzyme-inhibitor complexes before the start of the methylation reaction, which was initiated by the addition of 2.5 μl 2-fold concentrated solution (in assay buffer) of titriated S-Adenosyl-L-Methionine (3H-SAM, Perkin Elmer, final concentration: 60 nM) and p53 Peptide substrate (final concentration: 1.0 μM). The resulting mixture (5 μl final volume) was shortly centrifuged (2 min., 1500 rpm) and incubated at 22° C. during 30 min. Thereupon the reaction was stopped by adding 3 μl of Streptavidin PS SPA imaging beads (Perkin Elmer, final concentration of 3.12 μg/μl) and “cold” SAM (AK Scientific, 25 μM final concentration) for non-specific binding reduction. Plates containing the stopped reaction were sealed with transparent adhesive foil (Perkin Elmer), centrifuged (2 min., 1500 rpm), and further incubated for —at least—1 h at RT (or overnight at 4° C.) in order to allow the SPA signals to develop. Subsequently, the amount of product was evaluated by measuring the energy transfer from the β-particles emitted by the 3H-labeled substrate to the Europium scintillator co-polymerized in the polystyrene matrix of the PS imaging beads, using the standard settings for this purpose of a Viewlux (Perkin-Elmer) CCD plate imaging device (emission filter 613/55 (IFP). The resulting scintillation counts were taken as indicator for the amount of methylated peptide per well. The data were normalised using two sets of control wells (typically 16 each) for high−(=enzyme reaction with DMSO instead of test compound=0% =Minimum inhibition) and low−(=all assay components without enzyme=100% =Maximum inhibition) SMYD2 activity. IC50 values were calculated by fitting the normalized inhibition data to a 4-parameter logistic equation using the “Screener” analysis software from Genedata.

Chain of SMYD2 (Q9NRG4 whole entry): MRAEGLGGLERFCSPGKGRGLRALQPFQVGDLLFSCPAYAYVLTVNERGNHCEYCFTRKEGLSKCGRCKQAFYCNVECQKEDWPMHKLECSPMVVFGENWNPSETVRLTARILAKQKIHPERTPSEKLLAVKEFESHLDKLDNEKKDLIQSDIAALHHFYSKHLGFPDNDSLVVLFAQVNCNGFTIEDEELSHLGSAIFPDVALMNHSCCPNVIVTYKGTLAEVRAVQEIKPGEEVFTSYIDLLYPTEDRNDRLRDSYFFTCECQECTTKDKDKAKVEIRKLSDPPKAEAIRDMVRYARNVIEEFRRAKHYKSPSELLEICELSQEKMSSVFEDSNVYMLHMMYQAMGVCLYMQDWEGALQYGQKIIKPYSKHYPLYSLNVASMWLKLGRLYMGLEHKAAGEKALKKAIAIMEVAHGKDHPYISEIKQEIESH

Row | pIC50 | Structure (SMILES)
1 | 8.34 | CCN(C(=O)[C@H]1CCCN1)C1CN(/C(=N\C#N)Nc2cc(C(F)(F)F)ccc2OC)N=C1c1ccc(Cl)c(Cl)c1 (mixture of isomers) [Example 27, N-[1-{N′-Cyano-N-[2-methoxy-5-(trifluoromethyl)phenyl]carbamimidoyl}-3-(3,4-dichlorophenyl)-4,5-dihydro-1H-pyrazol-4-yl]-N-ethyl-D-prolinamide]
2 | 6.57 | CCN(C(=O)[C@H]1CCCN1)C1CN(/C(=N\C#N)Nc2cccc(OC(F)F)c2F)N=C1c1ccc(Cl)c(Cl)c1 (single isomer, unassigned) [Example 13.2, N-[1-{N′-Cyano-N-[3-(difluoromethoxy)-2-fluorophenyl]carbamimidoyl}-3-(3,4-dichlorophenyl)-4,5-dihydro-1H-pyrazol-4-yl]-N-ethyl-D-prolinamide]
3 | 7.10 | CCN(C(=O)[C@H]1C[C@@H](O)CN1)C1CN(/C(=N\C#N)Nc2cccc(OC(F)F)c2F)N=C1c1ccc(Cl)c(Cl)c1 (mixture of isomers) [Example 14, (4R)-N-[1-{N′-Cyano-N-[3-(difluoromethoxy)-2-fluorophenyl]carbamimidoyl}-3-(3,4-dichlorophenyl)-4,5-dihydro-1H-pyrazol-4-yl]-N-ethyl-4-hydroxy-D-prolinamide]
4 | 5.86 | CCN(C(=O)[C@H]1CCCN1)C1CN(/C(=N\C#N)Nc2cccc(OC(F)(F)F)c2)N=C1c1ccc(Cl)c(Cl)c1 (single isomer, unassigned) [Example 17.2, N-[1-{N′-Cyano-N-[3-(trifluoromethoxy)phenyl]carbamimidoyl}-3-(3,4-dichlorophenyl)-4,5-dihydro-1H-pyrazol-4-yl]-N-ethyl-D-prolinamide]
5 | 6.31 | CC1(C)CN[C@@H](C(=O)NC2CN(/C(=N\C#N)Nc3cccc(OC(F)F)c3)N=C2c2ccc(Cl)c(Cl)c2)C1 (mixture of isomers) [Example 7, N-[1-{N′-Cyano-N-[3-(difluoromethoxy)phenyl]carbamimidoyl}-3-(3,4-dichlorophenyl)-4,5-dihydro-1H-pyrazol-1-yl]-4,4-dimethyl-D-prolinamide]
6 | 6.24 | CCN(C(=O)c1cccc(=O)[nH]1)C1CN(/C(=N\C#N)Nc2cccc(OC(F)F)c2)N=C1c1ccc(Cl)c(Cl)c1 (single isomer, unassigned) [Example 5.1, N-[1-{N′-Cyrano-N-[3-(difluoromethoxy)phenyl]carbamimidoyl}-3-(3,4-dichlorophenyl)-4,5-dihydro-1H-pyrazol-1-yl]-N-ethyl-6-oxo-1,6-dihydropyridine-2-carboxamide]
7 | 6.22 | N#C/N=C(/Nc1cccc(OC(F)F)c1)N1CC(NC(=O)C2(N)CCC2)C(c2ccc(Cl)c(Cl)c2)=N1 (racemic) [Example 9, rac-1-Amino-N-[1-{N′-cyano-N-[3-(difluoromethoxy)phenyl]carbamimidoyl}-3-(3,4-dichlorophenyl)-4,5-dihydro-1H-pyrazol-4-yl]cyclobutanecarboxamide]
8 | 6.44 | CCN(C(=O)[C@H]1CCCN1)C1CN(/C(=N\C#N)Nc2cccc(OC(F)F)c2)N=C1c1ccc(Cl)c(Cl)c1 (single isomer, unassigned) [Example 1.2, N-[1-{N′-Cyano-N-[3-(difluoromethoxy)phenyl]carbamimidoyl}-3-(3,4-dichlorphenyl)-4,5-dihydro-1H-pyrazol-4-yl]-N-ethyl-D-prolinamide]
9 | < 4.70 | CCN(C(=O)c1cccc(=O)[nH]1)C1CN(/C(=N\C#N)Nc2cccc(OC(F)F)c2)N=C1c1ccc(Cl)c(Cl)c1 (single isomer, unassigned) [Example 5.2, N-[1-{N′-Cyano-N-[3-(difluoromethoxy)phenyl]carbamimidoyl}-3-(3,4-dichlorophenyl)-4,5-dihydro-1H-pyrazol-4-yl]-N-ethyl-6-oxo-1,6-dihydropyridine-2-carboxamide]
10 | 6.52 | CCN(C(=O)[C@H]1CCN1)C1CN(/C(=N\C#N)Nc2cccc(OC(F)F)c2)N=C1c1ccc(Cl)c(C)c1 (single isomer, unassigned) [Example 36.2]
11 | 7.49 | CCN(C(=O)[C@H]1C[C@@H](O)CN1)C1CN(/C(=N\C#N)Nc2cccc(OC(F)F)c2)N=C1c1ccc(Cl)c(C)c1 (single isomer, unassigned) [Example 39.1]
12 | 7.21 | CCN(C(=O)[C@H]1CCCN1)C1CN(/C(=N\C#N)Nc2cc(OC(F)(F)F)ccc2F)N=C1c1ccc(Cl)c(Cl)c1 (mixture of isomers) [Example 26, N-[1-{N′-Cyano-N-[2-fluoro-5-(trifluoromethoxy)phenyl]carbamimidoyl}-3-(3,4-dichlorophenyl)-4,5-dihydro-1H-pyrazol-4-yl]-N-ethyl-D-prolinamide]
13 | 6.30 | CCN(C(=O)[C@H]1CCCN1)C1CN(/C(=N\C#N)Nc2cccc(OCC(F)(F)F)c2)N=C1c1ccc(Cl)c(Cl)c1 (mixture of isomers) [Example 35, N-[1-{N′-Cyano-N-[3-(2,2,2-trifluorelethoxy)phenyl]carbamimidayl}-3-(3,4-dichlorophenyl)-4,5-dihydro-1H-pyrazol-4-yl]-N-ethyl-D-prolinamide]
14 | 5.79 | CCN(C(=O)[C@H]1C[C@@H](O)CN1)C1CN(/C(=N\C#N)Nc2cccc(OC(F)F)c2)N=C1c1ccc(Cl)c(C)c1 (single isomer, unassigned) [Example 39.2]
15 | 5.88 | N#C/N=C(/Nc1cccc(OC(F)F)c1)N1CC(NC(=O)C2(N)CCCCC2)C(c2ccc(Cl)c(Cl)c2)=N1 (racemic) [Example 11, rac-1-Amino-N-[1-{N′-cyano-N-[3-(difluoromethoxy)phenyl]carbamimidoyl}-3-(3,4-dichlorophenyl)-4,5-dihydro-1H-pyrazol-4-yl]cyclohexanecarboxamide]
16 | 6.13 | N#C/N=C(/Nc1cccc(OC(F)F)c1)N1CC(NC(=O)C2(N)CCCC2)C(c2ccc(Cl)c(Cl)c2)=N1 (racemic) [Example 10, rac-1-Amino-N-[1-{N′-cyano-N-[3-(difluoromethoxy)phenyl]carbamimidoyl}-3-(3,4-dichlorophenyl)-4,5-dihydro-1H-pyrazol-4-yl]cyclopentanecarboxamide]
